Data from PMC11359809, “Probing the molecular basis for signal transduction through the Zinc-Activated Channel (ZAC)” (Biochemical pharmacology, 2021).
Where a chain is given by its changes, count along the chain named.

Assays:
[1] = target: T1, ZAC^E160A/E162A/C195A (Homo sapiens, UniProt Q401N2, A152T/C219A/E184A/E186A); assay: TEVC in oocytes, Cluster 4 triple mutant; assay type: cell-based; details: agonist; n = 6
T1 construct: expressed in transfected cells; host or cells: Xenopus oocytes injected with cRNA (pUNIV vector)
T1 sequence (Q401N2 26-412 A152T/E184A/E186A/C219A): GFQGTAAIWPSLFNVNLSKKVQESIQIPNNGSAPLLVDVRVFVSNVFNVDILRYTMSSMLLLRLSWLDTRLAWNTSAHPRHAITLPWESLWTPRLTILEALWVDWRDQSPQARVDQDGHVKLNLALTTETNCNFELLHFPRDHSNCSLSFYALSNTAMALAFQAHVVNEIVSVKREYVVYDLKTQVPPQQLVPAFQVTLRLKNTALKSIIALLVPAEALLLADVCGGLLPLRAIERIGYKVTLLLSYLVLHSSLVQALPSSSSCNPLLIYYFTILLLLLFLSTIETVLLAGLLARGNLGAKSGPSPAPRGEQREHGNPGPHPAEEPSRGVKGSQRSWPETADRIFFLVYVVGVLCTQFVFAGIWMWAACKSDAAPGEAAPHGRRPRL
Experimental: (§1) The recordings were performed at room temperature.
(§2) Analysis of the data from the TEVC recordings were performed using Clampfit software version 10.5 (Molecular Devices, Crawley, UK) and GraphPad Prism version 7.0c (GraphPad Software, La Jolla, CA). Unless otherwise stated, the inward currents induced by agonists in oocytes were normalized to the maximal response elicited by a specific agonist (agonist Imax) on each oocyte. Concentration-response and concentration-inhibition curves were fitted in GraphPad Prism by nonlinear regression using the equation for sigmoidal dose-response with variable slope. Each data point represents the mean ± S.E.M. value of recordings performed on at least five oocytes in total from at least two different batches. […] The null hypothesis was rejected at P < 0.05, and the differences between the means were analyzed by Tukey’s multiple comparisons test.
(§3) The putative involvement of candidate residues in Clusters 1, 2, 3 and 4 in Zn^2+ binding to ZAC was investigated in by an elaborate alanine mutagenesis scanning. […] The determined IpH 4.0 value was used in part as a control and in part to enable the distinction of ZAC mutants non-responsive to Zn^2+ due to elimination of their ability to bind the metal ion from those where the mutation had eliminated cell surface expression and/or disrupted overall functionality of the receptor complex. […]

[2] = target: T2, ZAC^L9′T (Homo sapiens, UniProt Q401N2, A152T/L270T); assay: TEVC in oocytes, ZAC L9′T mutant; assay type: cell-based; details: agonist; n = 6
T2 construct: expressed in transfected cells; host or cells: Xenopus oocytes (cRNA injection, pUNIV vector)
T2 sequence (Q401N2 26-412 A152T/L270T): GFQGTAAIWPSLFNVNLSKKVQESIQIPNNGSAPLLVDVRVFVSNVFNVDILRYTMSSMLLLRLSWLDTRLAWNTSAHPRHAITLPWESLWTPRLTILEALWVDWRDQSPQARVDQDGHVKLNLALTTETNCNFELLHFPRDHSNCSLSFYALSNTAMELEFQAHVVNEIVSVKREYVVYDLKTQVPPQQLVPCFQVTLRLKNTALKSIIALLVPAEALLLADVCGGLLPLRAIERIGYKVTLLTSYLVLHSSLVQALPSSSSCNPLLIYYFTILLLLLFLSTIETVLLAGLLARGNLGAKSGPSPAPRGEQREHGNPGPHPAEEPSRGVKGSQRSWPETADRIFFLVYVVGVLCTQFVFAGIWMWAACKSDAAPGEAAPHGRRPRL
Experimental: as §1
(§4) Analysis of the data from the TEVC recordings were performed using Clampfit software version 10.5 (Molecular Devices, Crawley, UK) and GraphPad Prism version 7.0c (GraphPad Software, La Jolla, CA). Unless otherwise stated, the inward currents induced by agonists in oocytes were normalized to the maximal response elicited by a specific agonist (agonist Imax) on each oocyte. Concentration-response and concentration-inhibition curves were fitted in GraphPad Prism by nonlinear regression using the equation for sigmoidal dose-response with variable slope. Each data point represents the mean ± S.E.M. value of recordings performed on at least five oocytes in total from at least two different batches. For the data where statistical analysis was performed, a one-way ANOVA was used. The null hypothesis was rejected at P < 0.05, and the differences between the means were analyzed by Tukey’s multiple comparisons test.

[3] = target: T3, ZAC^H139A (Homo sapiens, UniProt Q401N2, A152T/H163A); assay: TEVC in oocytes, ZAC H139A mutant; assay type: cell-based
T3 construct: expressed in transfected cells; host or cells: Xenopus oocytes injected with cRNA (pUNIV vector)
T3 sequence (Q401N2 26-412 A152T/H163A): as the sequence (Q401N2 26-412 A152T/E184A/E186A/C219A) above, with H138A, A159E, A161E, A194C counted along it
Experimental: as §1, §2, §3

[4] = target: T4, ZAC^L9′I (Homo sapiens, UniProt Q401N2, A152T/L270I); assay: TEVC in oocytes, ZAC L9′I mutant; assay type: cell-based; details: agonist; n = 8
T4 construct: expressed in transfected cells; host or cells: Xenopus oocytes (cRNA injection, pUNIV vector)
T4 sequence (Q401N2 26-412 A152T/L270I): T2 sequence (Q401N2 26-412 A152T/L270T) with T245I
Experimental: as §1, §4

[5] = target: T5, ZAC^D105A/D108A (Homo sapiens, UniProt Q401N2, A152T/D129A/D132A); assay: TEVC in oocytes, ZAC D105A/D108A mutant; assay type: cell-based; details: 10 mM Zn^2+; data not shown
T5 construct: expressed in transfected cells; host or cells: Xenopus oocytes injected with cRNA (pUNIV vector)
T5 sequence (Q401N2 26-412 D129A/D132A/A152T): as the sequence (Q401N2 26-412 A152T/E184A/E186A/C219A) above, with D104A, D107A, A159E, A161E, A194C counted along it
Experimental: as §1, §2, §3

[6] = tested on: ZAC^FPM/hα1-Gly; assay: TEVC in oocytes, Cys-loop modified chimera ZAC^FPM/hα1-Gly; assay type: cell-based, human; details: data not shown
Experimental: as §1
To probe the effects of exchanges of regions involved in the ECD/TMD cross-talk between the two CLRs fused in a chimera on its functionality, we constructed 12 additional chimeras, three for each of the four original chimeras (Fig. 1A). Inspired by the similar modifications that have been introduced in a functional GLIC/hα1-Gly chimera, we swapped one or both of two specific regions: the three-residue FPX (Phe-Pro-X) motif in the Cys-loop of the ECD (FPR, FPF and […] in ZAC, m5-HT3A and hα1 GlyR, respectively), which is known to protude into proximity of the M2-M3 linker during the ECD/TMD cross-talk, and the extracellular C-terminus of the TMD, which differs substantially in both amino acid sequence and length between ZAC and the two classical CLRs combined with it in the chimeras (Fig. 4B). […] In light of this, it was not surprising that the four chimeras comprising exchanges of both the FPX motif and the C-terminus also were non-functional (data not shown).

[7] = target: T6, ZAC^E130A (Homo sapiens, UniProt Q401N2, A152T/E154A); assay: TEVC in oocytes, ZAC E130A mutant; assay type: cell-based
T6 construct: expressed in transfected cells; host or cells: Xenopus oocytes (cRNA injection, pUNIV vector)
T6 sequence (Q401N2 26-412 A152T/E154A): as the sequence (Q401N2 26-412 A152T/E184A/E186A/C219A) above, with E129A, A159E, A161E, A194C counted along it
Experimental: as §1, §2, §3

[8] = target: T7, ZAC^D108A (Homo sapiens, UniProt Q401N2, A152T/D132A); assay: TEVC in oocytes, ZAC D108A mutant; assay type: cell-based
T7 construct: expressed in transfected cells; host or cells: Xenopus oocytes (cRNA injection, pUNIV vector)
T7 sequence (Q401N2 26-412 D132A/A152T): as the sequence (Q401N2 26-412 A152T/E184A/E186A/C219A) above, with D107A, A159E, A161E, A194C counted along it
Experimental: as §1, §2, §3

[9] = target: T8, ZAC^E89A (Homo sapiens, UniProt Q401N2, A152T/E113A); assay: TEVC in oocytes, ZAC E89A mutant; assay type: cell-based; details: agonist; n = 7
T8 construct: expressed in transfected cells; host or cells: Xenopus oocytes injected with cRNA (pUNIV vector)
T8 sequence (Q401N2 26-412 E113A/A152T): as the sequence (Q401N2 26-412 A152T/E184A/E186A/C219A) above, with E88A, A159E, A161E, A194C counted along it
Experimental: as §1, §2, §3

[10] = target: T9, ZAC^D105A (Homo sapiens, UniProt Q401N2, A152T/D129A); assay: TEVC in oocytes, ZAC D105A mutant; assay type: cell-based
T9 construct: expressed in transfected cells; host or cells: Xenopus oocytes (cRNA injection, pUNIV vector)
T9 sequence (Q401N2 26-412 D129A/A152T): as the sequence (Q401N2 26-412 A152T/E184A/E186A/C219A) above, with D104A, A159E, A161E, A194C counted along it
Experimental: as §1, §2, §3

[11] = target: T10, ZAC^H79A/H82A/H120F (Homo sapiens, UniProt Q401N2, A152T/H103A/H106A/H144F); assay: TEVC in oocytes, ZAC H79A/H82A/H120F mutant; assay type: cell-based; details: parallel recordings, same oocyte batches
T10 construct: expressed in transfected cells; host or cells: Xenopus oocytes (cRNA injection, pUNIV vector)
T10 sequence (Q401N2 26-412 H103A/H106A/H144F/A152T): as the sequence (Q401N2 26-412 A152T/E184A/E186A/C219A) above, with H78A, H81A, H119F, A159E, A161E, A194C counted along it
Experimental: as §1, §2, §3

Structure (SMILES): [Cl-].[Cl-].[Zn+2] [Zn^2+, ZnCl2]
- EC50 [1]: 180 µM
- pEC50 ± S.E.M. [1]: 3.75 ± 0.05
- EC50 [2]: 66 µM
- nH ± S.E.M. (Hill slope) [2]: 0.7 ± 0.4
- pEC50 ± S.E.M. [2]: 4.18 ± 0.34
- functional properties as agonist compared to WT ZAC [3]: not altered significantly
- EC50 [4]: 24 µM
- nH ± S.E.M. (Hill slope) [4]: 0.8 ± 0.2
- pEC50 ± S.E.M. [4]: 4.62 ± 0.15
- agonist responsiveness [5]: non-responsive
- concentration-response relationship compared to ZAC/hα1-Gly [6]: not significantly different
- concentration-response relationship compared to WT ZAC [7]: did not differ significantly
- concentration-response relationship compared to WT ZAC [8]: did not differ significantly
- EC50 [9]: 160 µM
- pEC50 ± S.E.M. [9]: 3.79 ± 0.07
- concentration-response relationship compared to WT ZAC [10]: did not differ significantly
- ability to elicit ZAC signalling compared to WT ZAC [11]: did not appear to impair
